Data on four substances can be found in US5206223A, “Method for inhibiting heparanase activity” (Yeda Research and Development Co. Ltd., priority 1986, dated 1993).

Data set [1] concerns adjuvant arthritis. Kind of data set: Adjuvant arthritis induced with M. tuberculosis. To be noted: for Inhibition of arthritis / Arthritis score (day 60): rat, in vivo; for Arthritis score (day 60): sc. Format: in vivo, Lewis rats.
Data set [2] deals with heparanase. Nature of the data set: Inhibition of T lymphocyte heparanase activity (degradation of 35S-labeled heparan sulfate of extracellular matrix). Particulars: medium of activated T lymphocytes, 35S-labeled extracellular matrix, various concentrations. Format: biochemical. The procedure: Heparanase activity was induced into the extracellular medium bathing activated T lymphocytes and tested by incubating the medium with extracellular matrix whose heparan sulfate was labeled with ^35 S as described (Naparstek, Y., Cohen, I. R., Fuks, Z. and I. Vlodavsky. Activated T lymphocytes produce a matrix-degrading heparan sulphate endoglycosidase. Nature 310:241 (1984)). Inhibition of heparanase activity was tested by adding various concentrations of heparin or modified heparins to the reaction mixture and measuring the effect on degradation of the labeled heparin-sulfate as described (Naparstek, Y., Cohen, I. R., Fuks, Z. and I. Vlodavsky.
Activated T lymphocytes produce a matrix-degrading heparan sulphate endoglycosidase, Nature 310:241 (1984)). Totally desulfated heparin and N-desulfated, N-acetylated heparin was prepared as described. (Ayotte, L., A. S. Perlin. NMR spectroscopic observations related to the function of sulfate groups in heparin. Calcium binding vs. biological activity. Carbohydrate Res. 145:267 (1986)).

For data set [3], the system named is skin allografts. Kind of data set: Skin allograft survival (SJL/J skin on (BALB/c×C57BL/6)F1 mice). It counts as in vivo. To be noted: 10 mg/kg daily, saline control 10 days. The procedure: FIG. 1. Treatment with heparin (0.05 mg/kg) prevents rejection of skin allografts. Mice of hybrid strain (BALB/c×C57BL/6)F1 were grafted with skin from allogeneic SJL/J mice. The mice (20 per group) were treated daily with subcutaneous injections of saline (squares) or with heparin ("Leo", 0.05 mg/kg; diamonds) and scored for skin graft survival. Median survival for the control group was 10 days while that for the heparin treated group was 24 days.
FIG. 2. Treatment with N-desulfated, N-acetylated heparin (10 mg/kg) prevents rejection of skin allografts. Mice were grafted as described for FIG. 1 and treated daily with saline (squares) or N-desulfated, N-acetylated heparin (10 mg/kg; diamonds). The median survival of the skin allograft in the control group was 10 days while that in the treated group was 20 days.
The median survival time of the skin grafts on control mice treated with saline was […] while that on mice treated with 0.05 mg/kg daily of heparin was 26 days with maximal survival to 32 days.

For data set [4] the following is noted: rat, in vivo, 10 mg/kg.
Data set [5] has as its system experimental autoimmune encephalomyelitis (EAE). Kind of data set: Experimental autoimmune encephalomyelitis (EAE) produced by anti-BP T lymphocytes. It counts as in vivo, Lewis rats. Particulars: 10 mg/kg daily. The text has this:
EAE is an experimental autoimmune disease with some features reminiscent of multiple sclerosis in humans. The disease is caused by T lymphocytes immunized to the basic protein (BP) of the central nervous system myelin. To test the effect of heparins on the ability of T lymphocytes to cause autoimmune disease, we used T lymphocytes sensitized against BP, either as T cell lines (Cohen, I. R. Experimental autoimmune encephalomyelitis: Pathogenesis and prevention. In: Immunoregulatory Processes in Multiple Sclerosis and Experimental Allergic Encephalomyelitis. A. A. Vandenbark and J. C. M. Raus, eds. Elsevier Biomedical Res. Amsterdam. 7:91-125 (1985)) or as populations of lymph node cells from BP immunized rats.
EAE was produced by inoculating Lewis rats with a T cell line of anti-BP T lymphocytes (10^6 cells) with anti-BP primed lymph node cells (10^7 cells) intravenously (Cohen, I. R. Experimental autoimmune encephalomyelitis: Pathogenesis and prevention. In: Immunoregulatory Processes in Multiple Sclerosis and Experimental Allergic Encephalomyelitis. A. A. Vandenbark and J. C. M. Raus, eds. Elsevier Biomedical Res. Amsterdam. 7:91-125 (1985)) One day before inoculation and daily for 10 days, the rats received either saline or the heparins.

In data set [6] the test system is activated T lymphocytes. Nature of the data set: Traffic of 51Cr-labeled lymphocytes from subcutaneous site and in blood. It counts as in vivo. Particulars: rats or mice. The text has this: To test the effect of modified heparin on T lymphocyte traffic, we labelled the lymphocytes with ^51 Cr and measured the uptake of the labeled lymphocytes from a subcutaneous site and their persistence in the blood.
Furthermore, treatment with the modified heparin led to persistence of labeled lymphocytes in the blood for 4-5 days, while the untreated rats or mice cleared the labeled lymphocytes from the blood in 1 day. Thus, treatment with modified heparin inhibited the ability of T lymphocytes to enter the blood vessels, and once in the blood vessels, prevented the T lymphocytes from exiting. This can be attributed to inhibition of the heparanase enzyme activity needed to penetrate the extracellular matrix of the vessel wall.

“Also recorded” adds a separate entry of the source.

With N-desulfated heparin, in data set [1], the Inhibition of arthritis entry was “no” and the “Arthritis score (day 60)” value is 5.

As to N-desulfated, N-acetylated heparin, the “Inhibition of degradation of heparan sulfate by heparanase” value in data set [2] is “yes”. For the same substance, in data set [3], the “Median survival of skin allograft” value is given as 20 days. For the same substance, the “Anti-coagulant effect (prothrombin time)” value in data set [4] is “no anti-coagulant effect”. In data set [5] (A: T cell line, None 4.2), the “Duration of EAE” value was found to be 1.8 days. In data set [5] (A: T cell line, None 5.2), the “Day of onset of EAE” value is reported as 6.4. Also, the “% incidence of EAE” value in data set [5] (A: T cell line, None 100) came to 50%; in data set [5] (C: primed lymph node cells, None 80), 0%. Moreover, the “Clinical score of EAE” value in data set [5] (A: T cell line, scale 1-4, None 2.4) is reported as 0.8. Moreover, the “Inhibition of adjuvant arthritis (FIG. 4)” value in data set [1] (0.02 mg per rat (0.1 mg/kg) s.c. once daily from day 9, 0.1 mg/kg) is given as “significant inhibition of arthritis; also recorded: maximum effect”; in data set [1] (0.04 mg s.c. once daily from day 9) it was “ineffective”. Besides, in data set [1] (0.1 mg/kg/day from day 21 to 51, control rats severe signs of inflammation), the “Histologic examination of the joints” value was “healthy joints”. The “Remission of established adjuvant arthritis (FIG. 5)” value in data set [1] (0.1 mg/kg/day s.c. from day 21 to 51) is “early remission of established adjuvant arthritis”. Further, the Inhibition of arthritis result in data set [1] was “yes”. Besides, the “Arthritis score (day 60)” value in data set [1] turned out to be 0. Besides, the “Persistence of labeled lymphocytes in the site of injection into the tail” value in data set [6] (0.05 mg/kg, control 1-2 days) was 5 to 6 days. The “Persistence of labeled lymphocytes in the blood” value in data set [6] (untreated cleared in 1 day) lay within 4 to 5 days.

In the case of O-desulfated, N-acetylated heparin, in data set [1], the Inhibition of arthritis entry is reported as “yes” and the “Arthritis score (day 60)” value stood at 0.

Regarding “totally desulfated heparin [Heparin: totally desulfated]”, in data set [2], the “Inhibition of degradation of heparan sulfate by heparanase” value is recorded as “no”. In data set [1], the Inhibition of arthritis entry is on record as “no” and the “Arthritis score (day 60)” value stood at 5.
